Reference: patent US5430058A, “Pharmaceutical compositions comprising hydroxamate derivatives for iron removal” (Yeda Research and Development Co. Ltd., priority 1993, dated 1995)

Experiments:
[1] = test system: normal and infected red cells; experiment: Distribution of 59Fe counts after uptake (80,000g lysate fractionation); format: cell-based, human; conditions: 59Fe complex, lysates 80,000g×20 min
Method: (§1) k. Uptake of radioactive carrier-Fe complexes. DFO and the different SF derivatives were pre-complexed with iron by addition of concentrated stock solutions of 20 mg/ml carriers to ^59 FeCl3 (Amersham, England) in 0.5 ml of 150 mM NaCl, 10 mM Hepes at 3-5 molar excess of carrier for 1 hour at room temperature. To begin the flux, normal or parasitized red cells that had been washed 3 times in saline buffer and resuspended in the same buffer supplemented with 5% bovine serum albumin (BSA), 2.5 mM citrate, 2 mg/ml glucose were added to radioactive ^59 Fe-complexes at a final suspension of 20% hematocrit. After incubation at 37° C., 75 μl suspension was removed in duplicate aliquots for each time point, placed in plastic 15 ml test tube (Starstedt) and centrifuged 1 minute at 2,500 g. The supernatant was removed and the pellet immediately placed on ice. After all sampling was completed the pellets were washed twice in 15 ml of ice cold buffer containing 50 mM EDTA and lysed in distilled water. Radioactivity (Gamma emission, 700-1300 Kev) was counted and the cell number for each sample determined from hemoglobin absorption of the lysate at 410 nm.
Due to the fact that RSF's have markedly greater lipophilicity than DFO, they were expected to faster penetrate and therefore more effectively chelate intracellular iron after short exposure times. […]

Plasmodium falciparum = experiment: Antimalarial activity, general comparison and statements; format: cell-based
Method: g. Bioassay of iron carrier antimalarial activity. The antimalarial activity was assayed by adding the compounds from concentrated stock solutions (in DMSO) to microcultures (24 wells, Costar) containing infected red cells (2.5% hematocrit and 2% parasitemia). The cultures were usually synchronized (4-7 hrs. windows) by incubation in 300 mM Ala, 10 mM TRIS-Cl in conjunction with gelatin flotation and used either at the trophozoite (1-2% parasitemia) or at the ring stage (4-6% parasitemia) of the erythrocyctic cycle. After the indicated time of incubation with drug and either previous to or after washing 3 times with 100 volumes growth medium, the cells were supplemented with 6 μCi of either [^3 H]-hypoxanthine or [^3 H]-Ileu (Amersham, England) per well and parasite growth assessed after 24-48 hours by harvesting the labelled cells onto glass-fiber filters (Tamar, Inc. Jerusalem) and counting of the radioactivity.
The antimalarial activity of the different chelators was initially evaluated on cultures of trophozoites which were exposed for 24 hours to different concentrations of chelators. Following that period, [^3 H]-hypoxanthine or [^3 H]-Ileu were added and 24 hours later the parasitemia and incorporation of label into macromolecular material was determined.

normal red cells [2] = experiment: Extraction of chelatable iron, normal red cells (NRC); format: cell-based, human; conditions: Experiment 1, NRC, 12 μM, 2 hours at 37° C (untreated <0.1)
Method: (§2) l. Extraction of chelatable iron. Trophozoite stage parasites were obtained from step gradient of Percoll-3% L-alanine in phosphate buffered saline (10 mM Na-phosphate, 150 mM NaCl, pH 7.4). Cell suspensions of 100% parasitemia were adjusted to 1% hematocrit and placed in RPMI growth medium supplemented with 50 mM sucrose and 20 mM glucose. Pretreatment of cells was done with 12 μM of the indicated SF derivative or DMSO for 2 hours at 37° C. at which time the cells were washed twice in 500× volume of buffer containing 150 mM NaCl, 10 mM HEPES and 50 mM sucrose pH=7.4 Next the cells were incubated for additional 3 hours in 6.8 μM NBD-DFO and washed to remove fluorescent probe. Measurements of chelatable iron were carried out in the TCA soluble fraction of freeze thaw lysates as described by Lytton, S. D. et al., 1991 Mol. Pharmacol. 40:584-590.
(§3) Iron extractions were performed on cell suspensions treated (yes) or untreated (no) with 12 μM RSF n2-ileu for 2 hours at 37° C. Fluorescence assays of chelatable iron in non-infected (NRC) and in parasitized (IRC) red cells were carried out as described by Lytton et al., (1991) Mol. Pharmacol. 40:584.

infected red cells = experiment: Extraction of chelatable iron, infected red cells (IRC); format: cell-based, human erythrocytes infected with P. falciparum; conditions: 12 μM
Method: as §2, §3

uninfected red cells = experiment: Pre-incubation of uninfected red cells with chelator, effect on parasite growth; format: cell-based, human
Method: h. The effect of pre-incubation of red cells or plasma with drug on parasite growth. Red cell suspensions (5% hematocrit) in RPMI 1640 medium pH 7.4 (no plasma) were treated for 24-48 hrs with either 100 μg/ml of chelator or DMSO alone (<1% final concentration) in culture conditions. Chelator was removed by washing the cells 4 times with RPMI followed by 1 hour incubation at 37° C. Parasite growth was assayed after addition of gelatin enriched schizonts (>90%) as described above. Human plasma (2 ml) from O+ donors was adjusted to either pH 5 with MES (to enhance chelating efficiency) or pH 7.4 (with TRIS base), and treated for 18 hrs with 100 μg/ml chelators or with DMSO. The plasma was subsequently dialyzed for 24 hours against 800 ml 0.1% bovine serum albumin (BSA), and 10 mM glucose in phosphate buffered saline (PBS) pH 7.4, followed by an additional 24 hour dialysis against 400 ml of the same buffer and supplemented to the medium for parasite growth assays.
Plasma and uninfected red cells were separately treated with relatively high concentrations of chelators (100 μg/ml) in order to evaluate whether the site of action of the lipophilic chelators was associated with components of the plasma and/or the uninfected red cell.

red cells = experiment: Penetration of chelator into red cells; format: cell-based, human
normal red cells [3] = experiment: Uptake of 59Fe-carrier complexes into normal red cells; format: cell-based, human; conditions: iron(III) complex, normal red cells
Method: as §1
Due to the fact that RSF's have markedly greater lipophilicity than DFO, they were expected to faster penetrate and therefore more effectively chelate intracellular iron after short exposure times. Penetration of RSF's into normal and infected red cells was estimated by monitoring uptake of the RSF's-^59 Fe(III) complexes into infected and uninfected cells and compared to DFO. In order to confirm actual uptake of Fe-RSF ileun2 rather than adsorption to the outer membrane, cells were thoroughly washed and lysates were subjected to 80,000g×20 min centrifugation. More than 90% of the total counts were found in the cytosol fraction (results not shown).
FIGS. 8a and 8b show uptake of Fe^59 -carrier complexes into normal and infected red cells. Uptake of ^59 -Fe-RSF (FIG. 8a) and ^59 Fe-DFO (FIG. 8b) into normal (open symbols) and infected (closed symbols) red cells (60% parasitemia, >90% trophozoites). The carriers were pre-complexed to ^59 FeCl3 at 4:1 ration in DMSO with 5 μM external FeCl3 (from methanolic stock solutions). The radioactive complexes were then added to 20% hematocrit cell suspensions and flux was measured. Specific activity was 485000 cpm/nmole and 369000 cpm/nmole for the RSF and DFO uptake experiments, respectively. Cell number was determined from hemoglobin absorption of lysate at 410 nm.

For `CC[C@H](C)[C@H](NC(=O)CCOCC(CC)(COCCC(=O)N[C@H](C(=O)N(C)O)[C@@H](C)CC)COCCC(=O)N[C@H](C(=O)N(C)O)[C@@H](C)CC)C(=O)N(C)O` [SF1-ileu], the “Total counts found in the cytosol fraction” value [1] was “More than 90%”, the “Efficiency relative to DFO” value (Plasmodium falciparum; 24-48 hours exposure, various strains) was 6-13 fold and the “Speed of action relative to desferrioxamine” value (Plasmodium falciparum; faster acting than desferrioxamine) was 20 fold. For the same compound, the “Arrest of parasite growth” value (Plasmodium falciparum; infected red blood cells) was “arresting parasite growth irreversibly within a few hours”, the “Potency relative to desferrioxamine” value (Plasmodium falciparum; more potent than desferrioxamine) was 15 fold and the “Chelatable iron after RSF pretreatment” value (normal red cells [2]) was 0.7 nmoles/10^10 cells. For the same compound, the “Chelatable iron after RSF pretreatment” value (infected red cells; Experiment 1, IRC, 2 hours at 37° C (untreated 4.6)) was 0.9 nmoles/10^10 cells, the “Chelatable iron after RSF pretreatment” value (infected red cells; Experiment 2, IRC, 2 hours at 37° C (untreated 2.9)) was 0.3 nmoles/10^10 cells and the “Reduction of chelatable iron” value (infected red cells; pretreatment of trophozoites, 2 hours) was 5-10 fold. For the same compound, the “Ability of red cells to support parasite growth after pre-treatment” value (uninfected red cells; 24 hour exposure, 40 fold IC50, then washing) was “no significant effect”, the “Effect on ability of uninfected cells to support parasite growth” value (uninfected red cells; general statement) was “does not affect irreversibly the ability of uninfected cells to support parasite growth” and the “Penetration into red cells” value (red cells) was “can easily penetrate into red cells”. The “Time to maximum uptake” value (normal red cells [3]) was 10 to 15 min, the Maximum uptake level (normal red cells [3]; 5 μM external Fe) was 4 nmoles/10^10 cells and the “Uptake t1/2” value (normal red cells [3]; 5 μM external Fe) was 2 to 3 min.
